For test [1], the target named is EGFR (ErbB1) (Homo sapiens, UniProt P00533). As to the kind of experiment: Kinome selectivity screen EGFR. Type of test: biochemical. To be noted: 1 μM compound. As to the method: (§1) Kinome Selectivity Screen:
(§2) Kinase selectivity was assessed using the Life Technologies SelectScreen Kinase Profiling Service in a custom panel of 76 kinases selected to provide broad representative coverage of all kinase families. Kinase activity assays employed either the Z′-LYTE or Adapta assay technologies with ATP concentrations at or near the KM, ATP for each kinase and a test compound concentration of 1 μM.

Test [2] deals with IGF1R (Homo sapiens, UniProt P08069). As to the kind of experiment: Kinome selectivity screen IGF1R. In kind it is biochemical. To be noted: 1 μM compound. The protocol:
as §1, §2

In test [3] the target is FLT4 (VEGFR3) (Homo sapiens, UniProt P35916). As to the kind of experiment: Kinome selectivity screen FLT4. Type of test: biochemical. To be noted: 1 μM compound. As to the method:
as §1, §2

Test [4] concerns the target AKT1 (PKB alpha) (Homo sapiens, UniProt P31749). As to the kind of experiment: Kinome selectivity screen AKT1. Type of test: biochemical. The note with it: 1 μM compound. As to the method:
as §1, §2

In test [5] the target is ACVR1B (ALK4) (Homo sapiens, UniProt P36896). As to the kind of experiment: Kinome selectivity screen ACVR1B. Type of test: biochemical. To be noted: 1 μM compound. As to the method: as §1, §2
Test [6] addresses ROCK1 (Homo sapiens, UniProt Q13464). As to the kind of experiment: Kinome selectivity screen ROCK1. The note with it: 1 μM compound. In kind it is biochemical. The protocol:
as §1, §2

The target of test [7] is MAP4K5 (KHS1) (Homo sapiens, UniProt Q9Y4K4). As to the kind of experiment: Kinome selectivity screen MAP4K5. In kind it is biochemical. The note with it: 1 μM compound. The protocol: as §1, §2
The target of test [8] is AMPK A1/B1/G1 (Homo sapiens, UniProt Q13131). As to the kind of experiment: Kinome selectivity screen AMPK. In kind it is biochemical. To be noted: 1 μM compound. The protocol:
as §1, §2

For test [9], the target named is DYRK3 (Homo sapiens, UniProt O43781). As to the kind of experiment: Kinome selectivity screen DYRK3. The note with it: 1 μM compound. In kind it is biochemical. As to the method: as §1, §2
Test [10] concerns the target FLT1 (VEGFR1) (Homo sapiens, UniProt P17948). As to the kind of experiment: Kinome selectivity screen FLT1. In kind it is biochemical. The note with it: 1 μM compound. The protocol:
as §1, §2

In test [11] the target is FRAP1 (mTOR) (Homo sapiens, UniProt P42345). As to the kind of experiment: Kinome selectivity screen FRAP1. In kind it is biochemical. To be noted: 1 μM compound. As to the method:
as §1, §2

For test [12], the target named is PRKACA (PKA) (Homo sapiens, UniProt P17612). As to the kind of experiment: Kinome selectivity screen PRKACA. In kind it is biochemical. The note with it: 1 μM compound. The protocol:
as §1, §2

Test [13] addresses CDK9/cyclin T1 (Homo sapiens, UniProt P50750). As to the kind of experiment: Kinome selectivity screen CDK9/cyclin T1. In kind it is biochemical. The note with it: 1 μM compound. As to the method: as §1, §2
In test [14] the target is PDGFRB (PDGFR beta) (Homo sapiens, UniProt P09619). As to the kind of experiment: Kinome selectivity screen PDGFRB. Type of test: biochemical. To be noted: 1 μM compound. The protocol:
as §1, §2

Test [15] relates to pERK in HEK293 cells. As to the kind of experiment: pERK response in HEK293 cells. Type of test: cell-based. To be noted: at 10 μM. As to the method:
To rapidly assess the cellular activity (EC50) with full dose response curves of the MKK7 covalent inhibitors, according to some embodiments of the present invention, an in-cell western assay was adapted to a 384 well plate format over traditional western blot, and monitored phospho-JNK (pJNK) levels in response to osmotic shock. We first characterized the dynamics of pJNK in response to sorbitol. Sufficient dynamic range for pJNK is achieved at 20 minutes in HEK293 cells and at 40 minutes in 3T3 and Beas2B cells. The compound's activity was assessed by pre-treating cells with either compound or DMSO for 2 hours, followed by Sorbitol stimulation. The response of pJNK, and its substrates, pc-Jun and pATF2, was measured, as well as pP38, which is a substrate of MKK4 but not MKK7, and pERK in HEK293 cells, and the results are presented in Table 5 below.
With similar values for pcJun (2.26 μM and 1.67 μM, respectively) and pATF2 (2.79 μM 5.19 μM, respectively).

Test [16] concerns the target PLK1 (Homo sapiens, UniProt P53350). As to the kind of experiment: Kinome selectivity screen PLK1. In kind it is biochemical. To be noted: 1 μM compound. As to the method: as §1, §2
In test [17] the target is LRRK2 FL (Homo sapiens, UniProt Q5S007). As to the kind of experiment: Kinome selectivity screen LRRK2 FL. Type of test: biochemical. To be noted: 1 μM compound. As to the method: as §1, §2
Test [18] deals with MAPKAPK2 (Homo sapiens, UniProt P49137). As to the kind of experiment: Kinome selectivity screen MAPKAPK2. Type of test: biochemical. The note with it: 1 μM compound. As to the method: as §1, §2
The target of test [19] is EPHB1 (Homo sapiens, UniProt P54762). As to the kind of experiment: Kinome selectivity screen EPHB1. Type of test: biochemical. The note with it: 1 μM compound. As to the method: as §1, §2
The target of test [20] is AURKA (Aurora A) (Homo sapiens, UniProt O14965). As to the kind of experiment: Kinome selectivity screen AURKA. Type of test: biochemical. To be noted: 1 μM compound.
Test [21] deals with primary mouse B-cells. As to the kind of experiment: Primary B-cell activation (CD86+ FACS) in response to LPS. Type of test: cell-based. To be noted: Mus musculus, B-cell, 10 μM, 2 hours pre-incubation. An excerpt:
Compounds Block Activation of Primary Mouse B-Cells:
JNK is known to mediate activation of B-cells in response to lypopolysacharide (LPS) through the TLR4 signaling pathway as well as in response to B-cell receptor activation (stimulated e.g. with an anti-IgM antibody). Primary B-cells were isolated from the spleen of mice and assessed for their B-cell activation, via FACS analysis of CD86+ expression, in response to LPS in the presence or absence of the covalent MKK7 enzyme inhibitors presented herein, as well as a positive control JNK inhibitor, JNK-IN-8.
At 10 μM and 2 hours pre-incubation before stimulation, GO80 was able to inhibit 60% of the CD86+ response.

Test [22] has as its system JNK activation. As to the kind of experiment: KTR reporter live cell imaging of JNK activation. In kind it is cell-based. To be noted: Homo sapiens; HEK293 cells; read-out: EC50 of test and control compounds. An excerpt: As an orthogonal assay for the ICW we used a KTR reporter cell line for JNK activation via live cell imaging.

SMILES strings stand for the structures.

Chain of PLK1 (P53350 whole entry): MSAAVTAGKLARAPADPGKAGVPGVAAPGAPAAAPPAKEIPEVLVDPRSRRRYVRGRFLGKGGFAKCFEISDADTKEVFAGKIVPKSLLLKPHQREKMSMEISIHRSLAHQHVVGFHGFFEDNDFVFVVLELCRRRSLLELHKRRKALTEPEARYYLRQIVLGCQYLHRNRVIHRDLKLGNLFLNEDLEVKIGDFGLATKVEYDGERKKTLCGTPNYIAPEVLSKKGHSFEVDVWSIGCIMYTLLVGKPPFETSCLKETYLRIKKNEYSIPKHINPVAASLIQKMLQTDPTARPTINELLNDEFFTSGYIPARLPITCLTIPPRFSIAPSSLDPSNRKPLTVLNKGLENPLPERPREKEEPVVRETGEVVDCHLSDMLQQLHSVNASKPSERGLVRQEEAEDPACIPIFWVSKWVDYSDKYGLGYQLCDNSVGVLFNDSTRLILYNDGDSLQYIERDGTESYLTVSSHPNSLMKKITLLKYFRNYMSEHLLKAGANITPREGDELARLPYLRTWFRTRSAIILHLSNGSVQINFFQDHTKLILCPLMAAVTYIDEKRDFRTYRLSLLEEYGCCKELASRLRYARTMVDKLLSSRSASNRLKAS
Chain of AKT1 (PKB alpha) (P31749 whole entry): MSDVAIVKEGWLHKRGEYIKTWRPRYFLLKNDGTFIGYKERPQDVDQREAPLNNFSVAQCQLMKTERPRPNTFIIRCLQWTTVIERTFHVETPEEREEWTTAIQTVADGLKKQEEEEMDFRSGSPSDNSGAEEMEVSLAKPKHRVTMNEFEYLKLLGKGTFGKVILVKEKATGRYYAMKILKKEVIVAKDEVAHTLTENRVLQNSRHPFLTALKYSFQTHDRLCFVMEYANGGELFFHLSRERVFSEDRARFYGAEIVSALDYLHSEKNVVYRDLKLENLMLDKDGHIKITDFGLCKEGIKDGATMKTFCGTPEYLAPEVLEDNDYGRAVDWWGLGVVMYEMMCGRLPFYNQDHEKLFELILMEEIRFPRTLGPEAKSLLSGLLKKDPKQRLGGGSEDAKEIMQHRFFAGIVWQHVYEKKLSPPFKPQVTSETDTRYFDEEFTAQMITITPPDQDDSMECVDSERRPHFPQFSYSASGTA
Chain of LRRK2 FL (Q5S007 whole entry): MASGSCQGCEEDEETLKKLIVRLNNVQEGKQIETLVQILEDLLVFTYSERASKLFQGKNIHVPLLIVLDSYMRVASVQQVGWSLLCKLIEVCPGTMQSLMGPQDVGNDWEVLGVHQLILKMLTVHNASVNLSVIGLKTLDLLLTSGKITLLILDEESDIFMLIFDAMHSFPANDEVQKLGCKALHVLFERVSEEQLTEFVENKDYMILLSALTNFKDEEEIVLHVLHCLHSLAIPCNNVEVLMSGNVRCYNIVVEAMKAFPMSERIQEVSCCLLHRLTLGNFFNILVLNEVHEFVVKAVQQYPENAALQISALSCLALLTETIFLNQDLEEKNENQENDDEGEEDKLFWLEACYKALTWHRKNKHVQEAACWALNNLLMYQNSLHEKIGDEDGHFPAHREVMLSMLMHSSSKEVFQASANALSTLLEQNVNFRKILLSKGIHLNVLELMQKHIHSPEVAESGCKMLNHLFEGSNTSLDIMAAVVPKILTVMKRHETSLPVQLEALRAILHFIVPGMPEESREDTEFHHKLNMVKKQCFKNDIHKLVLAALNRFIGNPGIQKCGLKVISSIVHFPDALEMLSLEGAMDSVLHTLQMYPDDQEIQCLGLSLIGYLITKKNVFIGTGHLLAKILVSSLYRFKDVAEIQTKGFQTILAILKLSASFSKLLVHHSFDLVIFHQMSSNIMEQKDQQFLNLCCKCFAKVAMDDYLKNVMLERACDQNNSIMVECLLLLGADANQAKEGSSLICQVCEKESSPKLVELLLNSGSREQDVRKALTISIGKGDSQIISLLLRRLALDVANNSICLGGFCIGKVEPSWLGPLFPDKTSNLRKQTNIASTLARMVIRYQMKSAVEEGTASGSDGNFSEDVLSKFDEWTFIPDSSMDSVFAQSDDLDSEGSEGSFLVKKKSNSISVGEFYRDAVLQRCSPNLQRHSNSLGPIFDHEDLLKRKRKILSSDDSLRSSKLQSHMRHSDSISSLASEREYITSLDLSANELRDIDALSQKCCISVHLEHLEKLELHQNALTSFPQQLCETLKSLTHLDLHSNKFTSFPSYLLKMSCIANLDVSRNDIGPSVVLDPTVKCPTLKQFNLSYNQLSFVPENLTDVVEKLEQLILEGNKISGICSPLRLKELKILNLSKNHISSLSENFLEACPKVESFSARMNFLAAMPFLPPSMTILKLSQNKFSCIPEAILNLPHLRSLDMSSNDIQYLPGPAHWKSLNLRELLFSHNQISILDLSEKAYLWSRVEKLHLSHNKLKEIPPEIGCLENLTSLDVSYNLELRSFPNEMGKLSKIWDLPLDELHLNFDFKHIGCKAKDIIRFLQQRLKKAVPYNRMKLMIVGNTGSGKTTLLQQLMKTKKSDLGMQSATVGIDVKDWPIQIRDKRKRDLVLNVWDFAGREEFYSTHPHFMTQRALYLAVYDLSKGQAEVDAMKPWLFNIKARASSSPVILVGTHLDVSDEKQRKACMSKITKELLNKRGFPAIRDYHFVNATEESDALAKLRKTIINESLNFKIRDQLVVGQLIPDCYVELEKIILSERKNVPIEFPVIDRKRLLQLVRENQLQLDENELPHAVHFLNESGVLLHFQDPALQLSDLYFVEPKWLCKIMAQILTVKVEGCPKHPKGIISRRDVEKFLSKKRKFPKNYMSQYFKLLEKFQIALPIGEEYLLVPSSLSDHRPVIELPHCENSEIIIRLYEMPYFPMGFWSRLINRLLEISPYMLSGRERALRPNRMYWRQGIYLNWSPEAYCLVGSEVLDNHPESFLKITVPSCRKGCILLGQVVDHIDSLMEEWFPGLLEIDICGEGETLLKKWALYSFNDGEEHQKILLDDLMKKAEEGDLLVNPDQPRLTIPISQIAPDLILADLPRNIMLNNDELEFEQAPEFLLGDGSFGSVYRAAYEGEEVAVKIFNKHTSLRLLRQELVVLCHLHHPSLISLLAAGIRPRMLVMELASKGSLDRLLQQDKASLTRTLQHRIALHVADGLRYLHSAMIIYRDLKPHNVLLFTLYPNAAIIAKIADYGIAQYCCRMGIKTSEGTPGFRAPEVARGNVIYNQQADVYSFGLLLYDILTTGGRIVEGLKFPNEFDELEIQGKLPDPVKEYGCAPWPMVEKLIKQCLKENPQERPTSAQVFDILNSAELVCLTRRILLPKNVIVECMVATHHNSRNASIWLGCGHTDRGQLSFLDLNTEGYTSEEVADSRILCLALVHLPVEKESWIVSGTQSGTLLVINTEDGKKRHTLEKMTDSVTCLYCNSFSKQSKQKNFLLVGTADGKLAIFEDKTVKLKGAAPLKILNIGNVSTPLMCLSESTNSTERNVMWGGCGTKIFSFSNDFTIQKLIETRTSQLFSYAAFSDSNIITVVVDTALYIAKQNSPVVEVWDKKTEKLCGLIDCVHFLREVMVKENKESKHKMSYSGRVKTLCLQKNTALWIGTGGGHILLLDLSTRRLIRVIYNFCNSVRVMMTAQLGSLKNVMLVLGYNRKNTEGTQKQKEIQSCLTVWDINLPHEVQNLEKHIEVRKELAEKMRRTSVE
Chain of CDK9/cyclin T1 (P50750 whole entry): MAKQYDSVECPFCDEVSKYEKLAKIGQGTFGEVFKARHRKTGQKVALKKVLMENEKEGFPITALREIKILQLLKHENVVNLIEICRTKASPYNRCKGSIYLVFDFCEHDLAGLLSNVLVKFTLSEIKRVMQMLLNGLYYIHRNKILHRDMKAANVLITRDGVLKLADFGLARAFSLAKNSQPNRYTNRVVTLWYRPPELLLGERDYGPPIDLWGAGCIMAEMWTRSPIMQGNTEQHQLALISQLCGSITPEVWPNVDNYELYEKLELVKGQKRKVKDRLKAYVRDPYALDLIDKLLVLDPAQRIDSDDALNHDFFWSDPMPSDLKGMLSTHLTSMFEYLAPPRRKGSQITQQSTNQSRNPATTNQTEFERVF
Chain of CDK9/cyclin T1 (O60563 whole entry partner): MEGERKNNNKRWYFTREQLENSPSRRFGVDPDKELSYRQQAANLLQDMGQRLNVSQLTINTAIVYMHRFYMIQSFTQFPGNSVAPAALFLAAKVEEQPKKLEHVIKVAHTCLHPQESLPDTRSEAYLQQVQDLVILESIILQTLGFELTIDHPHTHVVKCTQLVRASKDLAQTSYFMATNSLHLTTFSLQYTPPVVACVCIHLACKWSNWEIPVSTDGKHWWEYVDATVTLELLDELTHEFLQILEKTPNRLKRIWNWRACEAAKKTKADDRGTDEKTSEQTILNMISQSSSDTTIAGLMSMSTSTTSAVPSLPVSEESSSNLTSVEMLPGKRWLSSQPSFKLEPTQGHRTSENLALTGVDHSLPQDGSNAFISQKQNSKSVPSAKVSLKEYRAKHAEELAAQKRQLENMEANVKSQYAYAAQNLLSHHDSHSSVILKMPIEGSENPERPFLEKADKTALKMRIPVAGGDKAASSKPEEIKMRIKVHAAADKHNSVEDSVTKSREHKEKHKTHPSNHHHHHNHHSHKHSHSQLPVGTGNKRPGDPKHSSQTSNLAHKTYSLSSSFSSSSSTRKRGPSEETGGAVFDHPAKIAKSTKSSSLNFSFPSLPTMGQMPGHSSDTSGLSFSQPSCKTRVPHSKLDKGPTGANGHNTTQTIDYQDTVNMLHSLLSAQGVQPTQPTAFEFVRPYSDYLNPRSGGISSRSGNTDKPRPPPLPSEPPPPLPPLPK

Turning to `C=CC(=O)Nc1cccc(-c2n[nH]c3ccccc23)c1` [GO32], the inhibition at 1 µM is -6% in [1]; 6% in [2]; -2% in test [3]; -5% in test [4]; -8% in test [5]; -3% in [6]. The inhibition at 1 µM in test [7] was 22%; in test [8], -5%; in test [9], 11%; in test [10], -1%; in [11], -2%; in test [12], -8%. Further, the inhibition at 1 µM is 3% in [13]; -3% in test [14]; 1% in [16]; 91% in [17]; 2% in [18]; -4% in test [19]. Besides, in test [15], the “decrease in pERK” value is reported as “about 25%”.

Turning to `C=CC(=O)Nc1cccc(-c2n[nH]c3cc(C)ccc23)c1` [GO80], the inhibition at 1 µM in test [1] was -4%; in [20], 4%; in [2], 7%; in test [3], 0%; in [4], -4%; in test [5], 5%. Further, the inhibition at 1 µM in [6] is 3%; in test [7], -11%; in test [8], -5%; in test [9], 22%; in test [10] it was 2%; in [11], -2%. Moreover, the inhibition at 1 µM was -10% in test [12]; 5% in test [13]; -13% in [14]; 3% in [16]; 86% in test [17]; 1% in test [18]. For the same compound, the inhibition at 1 µM in [19] is -2%. In test [15], the “effect on pERK levels” value is on record as “did not affect”. The inhibition at 10 µM in [21] was 60%. Besides, the EC50 in test [22] was found to be 3.3 µM.

The values are drawn from patent publication US20210238173A1, “MITOGEN-ACTIVATED PROTEIN KINASE KINASE 7 INHIBITORS” (Yeda Research and Development Co. Ltd., priority 2018, published 2021).
